Test results published in patent US12692261B2, “Substituted heterocyclic compounds and therapeutic uses thereof” (Bayer Aktiengesellschaft, priority 2020, dated 2026).

What was measured:
[1] = target: T1, full-length human CSNK1A1 (Homo sapiens, UniProt P48729); assay: CSNK1A1 Assay 2 (ADP-Glo, 1 μM ATP, substrate biotin-Ahx-KRRRAL-pS-VASLPGL); format: biochemical; settings: Table 3, read-out: CSNK1A1 Assay 2 IC50 [mol/l] (median)
T1 construct: N-terminal Glutathion-S-Transferase (GST) and full-length human CSNK1A1; purchased Life Technologies PV4174; host or cells: baculovirus infected insect cells
T1 sequence (P48729 whole entry): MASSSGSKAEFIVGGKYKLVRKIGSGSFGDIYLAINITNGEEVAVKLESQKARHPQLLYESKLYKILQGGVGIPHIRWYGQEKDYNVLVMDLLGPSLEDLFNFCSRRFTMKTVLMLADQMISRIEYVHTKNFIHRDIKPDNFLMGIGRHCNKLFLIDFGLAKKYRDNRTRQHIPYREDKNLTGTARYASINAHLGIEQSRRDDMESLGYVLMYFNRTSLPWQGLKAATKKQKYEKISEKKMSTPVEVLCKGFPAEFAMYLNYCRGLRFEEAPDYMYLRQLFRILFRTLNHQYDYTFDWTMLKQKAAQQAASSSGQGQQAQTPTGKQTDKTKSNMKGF
Method in brief: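 Activity read as ADP generated (ADP-Glo luciferase luminescence, 1 h detection steps at 22 °C). Enzyme was insect-cell-expressed GST–full-length human CSNK1A1, compound-preincubated 15 min before reaction with phosphopeptide substrate and 1 μM ATP in 50 mM HEPES pH 7.5, 10 mM MgCl2.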

full-length human CSNK1D = target: T2, full-length human CSNK1D (Homo sapiens, UniProt P48730); assay: CSNK1D Assay (ADP-Glo, 1 μM ATP); format: biochemical; settings: Table 3, read-out: CSNK1D IC50 [mol/l] (median)
T2 construct: N-terminal Glutathion-S-Transferase (GST) and full-length human CSNK1D; purchased Life Technologies PV3665; host or cells: baculovirus infected insect cells
T2 sequence (P48730 whole entry): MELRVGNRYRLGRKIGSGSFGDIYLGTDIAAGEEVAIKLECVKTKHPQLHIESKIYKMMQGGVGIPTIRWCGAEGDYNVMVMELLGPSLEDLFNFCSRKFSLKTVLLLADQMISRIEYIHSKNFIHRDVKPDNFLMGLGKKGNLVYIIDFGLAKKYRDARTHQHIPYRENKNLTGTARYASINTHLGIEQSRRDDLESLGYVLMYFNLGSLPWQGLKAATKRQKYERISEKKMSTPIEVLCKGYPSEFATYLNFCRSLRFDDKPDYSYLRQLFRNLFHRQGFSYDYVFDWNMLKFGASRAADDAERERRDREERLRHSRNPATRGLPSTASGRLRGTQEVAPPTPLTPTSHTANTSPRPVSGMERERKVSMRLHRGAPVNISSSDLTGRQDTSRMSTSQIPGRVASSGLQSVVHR
Method in brief: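 ADP-Glo luminescence reports ADP generated by GST-fused full-length human CSNK1D (insect-cell expressed, about 0.5 ng/μL) acting on a biotinylated peptide at 1 μM ATP. Test compounds were pre-bound to enzyme 15 min at 22° C in 50 mM HEPES pH 7.5.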

SMILES	IC50 [1]	IC50 (full-length human CSNK1D)
O=C(Nc1cc(-c2[nH]c3c(OC4CC4)cc(F)nc3c2-c2ccccn2)ccn1)C(CC(F)F)c1ccc(F)cc1 (single isomer, unassigned) [Example 43, N-{4-[7-(cyclopropyloxy)-5-fluoro-3-(pyridin-2-yl)-1H-pyrrolo[3,2-b]pyridin-2-yl]pyridin-2-yl}-4,4-difluoro-2-(4-fluorophenyl)butanamide]	10.2 nM	7.64 nM
O=C(Nc1cc(-c2[nH]c3c(CC4CC4)cc(F)nc3c2-c2ccccn2)ccn1)C(CC(F)F)c1ccc(F)cc1 (single isomer, unassigned) [Example 47, (2R or S)—N-{4-[7-(cyclopropylmethyl)-5-fluoro-3-(pyridin-2-yl)-1H-pyrrolo[3,2-b]pyridin-2-yl]pyridin-2-yl}-4,4-difluoro-2-(4-fluorophenyl)butanamide]	31.6 nM	59 nM
O=C(Nc1cc(-c2[nH]c3c(CC4CC4)cc(F)nc3c2-c2ccccn2)ccn1)C(CC(F)F)c1ccc(F)cc1 (single isomer, unassigned) [Example 48, (2R or S)—N-{4-[7-(cyclopropylmethyl)-5-fluoro-3-(pyridin-2-yl)-1H-pyrrolo[3,2-b]pyridin-2-yl]pyridin-2-yl}-4,4-difluoro-2-(4-fluorophenyl)butanamide]	9.91 nM	6.99 nM
O=C(Nc1cc(-c2[nH]c3c(N4CCNCC4)ccnc3c2-c2ccccn2)ccn1)C(CC(F)F)c1ccc(F)cc1 (single isomer, unassigned) [Example 93, (2R or S)-4,4-difluoro-2-(4-fluorophenyl)-N-{4-[7-(piperazin-1-yl)-3-(pyridin-2-yl)-1H-pyrrolo[3,2-b]pyridin-2-yl]pyridin-2-yl}butanamide]	5.35 nM	17.3 nM
O=C(Nc1cc(-c2[nH]c3c(N4CCNCC4)ccnc3c2-c2ccccn2)ccn1)C(CC(F)F)c1ccc(F)cc1 (single isomer, unassigned) [Example 94, (2R or S)-4,4-difluoro-2-(4-fluorophenyl)-N-{4-[7-(piperazin-1-yl)-3-(pyridin-2-yl)-1H-pyrrolo[3,2-b]pyridin-2-yl]pyridin-2-yl}butanamide]	2.31 nM	3.67 nM
O=C(Nc1cc(-c2[nH]c3ccc(F)nc3c2-c2cc(F)ccn2)ccn1)C(CC(F)F)c1ccc(F)cc1 (single isomer, unassigned) [Example 96, (2R or S)-4,4-difluoro-N-{4-[5-fluoro-3-(4-fluoropyridin-2-yl)-1H-pyrrolo[3,2-b]pyridin-2-yl]pyridin-2-yl}-2-(4-fluorophenyl)butanamide]	4.67 nM	10.4 nM
O=C(Nc1cc(-c2[nH]c3ccc(F)nc3c2-c2cc(F)ccn2)ccn1)C(CC(F)F)c1ccc(F)cc1 (single isomer, unassigned) [Example 97, (2R or S)-4,4-difluoro-N-{4-[5-fluoro-3-(4-fluoropyridin-2-yl)-1H-pyrrolo[3,2-b]pyridin-2-yl]pyridin-2-yl}-2-(4-fluorophenyl)butanamide]	36 nM	67 nM
CC(C)(O)c1cc(F)nc2c(-c3ccccn3)c(-c3ccnc(NC(=O)C(CC(F)F)c4ccc(F)cc4)c3)[nH]c12 (single isomer, unassigned) [Example 99, (2R or S)-4,4-difluoro-N-{4-[5-fluoro-7-(2-hydroxypropan-2-yl)-3-(pyridin-2-yl)-1H-pyrrolo[3,2-b]pyridin-2-yl]pyridin-2-yl}-2-(4-fluorophenyl)butanamide]	3.55 nM	3.36 nM
CC(C)(O)c1cc(F)nc2c(-c3ccccn3)c(-c3ccnc(NC(=O)C(CC(F)F)c4ccc(F)cc4)c3)[nH]c12 (single isomer, unassigned) [Example 100, (2R or S)-4,4-difluoro-N-{4-[5-fluoro-7-(2-hydroxypropan-2-yl)-3-(pyridin-2-yl)-1H-pyrrolo[3,2-b]pyridin-2-yl]pyridin-2-yl}-2-(4-fluorophenyl)butanamide]	33.6 nM	46.3 nM
COc1cnc2c(-c3ccccn3)c(-c3ccnc(NC(=O)C(CC(F)F)c4ccc(F)cc4)c3)[nH]c2n1 (single isomer, unassigned) [Example 102, 4,4-difluoro-2-(4-fluorophenyl)-N-{4-[3-methoxy-7-(pyridin-2-yl)-5H-pyrrolo[2,3-b]pyrazin-6-yl]pyridin-2-yl}butanamide]	31.1 nM	75 nM
COc1cnc2c(-c3ccccn3)c(-c3ccnc(NC(=O)C(CC(F)F)c4ccc(F)cc4)c3)[nH]c2n1 (single isomer, unassigned) [Example 103, 4,4-difluoro-2-(4-fluorophenyl)-N-{4-[3-methoxy-7-(pyridin-2-yl)-5H-pyrrolo[2,3-b]pyrazin-6-yl]pyridin-2-yl}butanamide]	1.97 nM	4.3 nM
O=C(Nc1cc(-c2[nH]c3c(C4CCCO4)cc(F)nc3c2-c2ccccn2)ccn1)C(CC(F)F)c1ccc(F)cc1 (single isomer, unassigned) [Example 115, (2R or S)-4,4-difluoro-N-(4-{5-fluoro-7-[(2R or S)-oxolan-2-yl]-3-(pyridin-2-yl)-1H-pyrrolo[3,2-b]pyridin-2-yl}pyridin-2-yl)-2-(4-fluorophenyl)butanamide]	5.84 nM	7.02 nM
O=C(Nc1cc(-c2[nH]c3c(C4CCCO4)cc(F)nc3c2-c2ccccn2)ccn1)C(CC(F)F)c1ccc(F)cc1 (single isomer, unassigned) [Example 116, (2R or S)-4,4-difluoro-N-(4-{5-fluoro-7-[(2R or S)-oxolan-2-yl]-3-(pyridin-2-yl)-1H-pyrrolo[3,2-b]pyridin-2-yl}pyridin-2-yl)-2-(4-fluorophenyl)butanamide]	5.1 nM	4.25 nM
O=C(Nc1cc(-c2[nH]c3c(C4CCCO4)cc(F)nc3c2-c2ccccn2)ccn1)C(CC(F)F)c1ccc(F)cc1 (single isomer, unassigned) [Example 117, (2R or S)-4,4-difluoro-N-(4-{5-fluoro-7-[(2R or S)-oxolan-2-yl]-3-(pyridin-2-yl)-1H-pyrrolo[3,2-b]pyridin-2-yl}pyridin-2-yl)-2-(4-fluorophenyl)butanamide]	9.89 nM	28 nM
O=C(Nc1cc(-c2[nH]c3c(C4CCCO4)cc(F)nc3c2-c2ccccn2)ccn1)C(CC(F)F)c1ccc(F)cc1 (single isomer, unassigned) [Example 118, (2R or S)-4,4-difluoro-N-(4-{5-fluoro-7-[(2R or S)-oxolan-2-yl]-3-(pyridin-2-yl)-1H-pyrrolo[3,2-b]pyridin-2-yl}pyridin-2-yl)-2-(4-fluorophenyl)butanamide]	66.9 nM	125 nM
O=C(Nc1cc(-c2[nH]c3nccnc3c2-c2ccccn2)ccn1)C(CC(F)(F)F)c1ccc(F)cc1 (single isomer, unassigned) [Example 120, (2R or S)-4,4,4-trifluoro-2-(4-fluorophenyl)-N-{4-[7-(pyridin-2-yl)-5H-pyrrolo[2,3-b]pyrazin-6-yl]pyridin-2-yl}butanamide]	1.36 nM	4.35 nM
O=C(Nc1cc(-c2[nH]c3nccnc3c2-c2ccccn2)ccn1)C(CC(F)(F)F)c1ccc(F)cc1 (single isomer, unassigned) [Example 121, (2R or S)-4,4,4-trifluoro-2-(4-fluorophenyl)-N-{4-[7-(pyridin-2-yl)-5H-pyrrolo[2,3-b]pyrazin-6-yl]pyridin-2-yl}butanamide]	29.4 nM	62.9 nM
